From PubChem BioAssay AID206 (DTP/NCI, 2004)
Inconclusive results are not listed.

System: nude mice, HT29 intrarenal xenograft, tumor weight T/C
Test: NCI In Vivo Anticancer Drug Screen. Data for tumor model HT29;CX-1 Human Adenocarcinoma (MER+) (intrarenal inoculation) in NU/NU Swiss (nude) mice
Settings: endpoint: mean tumor weight change, higher = larger tumour
In short: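 Readout: treated/vehicle-control ratio of the measured endpoint (tumor size or survival) in transplanted-tumor mice.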

[1] = dose: 37.5 mg/kg/injection, schedule: Q04DX004 (sc), vehicle: saline with Tween-80
[2] = dose: 75.0 mg/kg/injection, schedule: Q04DX004 (sc), vehicle: saline with Tween-80
[3] = dose: 150.0 mg/kg/injection, schedule: Q04DX004 (sc), vehicle: saline with Tween-80
[4] = dose: 1200.0 mg/kg/injection, schedule: Q04DX004 (sc), vehicle: Klucel (hydroxypropylcellulose) (HPC)
[5] = dose: 25.0 mg/kg/injection, schedule: Q01DX010 (sc), vehicle: saline
[6] = dose: 50.0 mg/kg/injection, schedule: Q01DX010 (sc), vehicle: saline

In the case of COc1cc([C@@H]2c3cc4c(c(O)c3C[C@H]3COC(=O)[C@@H]32)OCO4)cc(OC)c1O, the T/C (dose: 1.0 mg/kg/injection, schedule: Q01DX010 (sc), vehicle: saline) is reported as 92 % of control, the T/C (dose: 2.0 mg/kg/injection, schedule: Q01DX010 (sc), vehicle: saline) is reported as 75 % of control and the T/C (dose: 4.0 mg/kg/injection, schedule: Q01DX010 (sc), vehicle: saline) is reported as 106 % of control.
Cn1cnc([N+](=O)[O-])c1SCC(=O)O was tested, and the T/C (dose: 300.0 mg/kg/injection, schedule: Q04DX004 (sc), vehicle: saline) was 89 % of control, the T/C (dose: 600.0 mg/kg/injection, schedule: Q04DX004 (sc), vehicle: saline) was 83 % of control and the T/C (dose: 1200.0 mg/kg/injection, schedule: Q04DX004 (sc), vehicle: saline) was 66 % of control. For the same molecule, the T/C (dose: 2400.0 mg/kg/injection, schedule: Q04DX004 (sc), vehicle: saline) was 77 % of control.
In the case of C/C(=N\NC(N)=O)c1cccc(/C(C)=N/NC(N)=O)n1, the T/C (dose: 200.0 mg/kg/injection, schedule: Q04DX004 (sc), vehicle: saline with Tween-80) is reported as 106 % of control and the T/C (dose: 400.0 mg/kg/injection, schedule: Q04DX004 (sc), vehicle: saline with Tween-80) is reported as 108 % of control.
Clc1cc(Cl)c(C[N+]23CN4CN(CN(C4)C2)C3)cc1Cl was tested, and the T/C [1] was 85 % of control, the T/C [2] was 95 % of control and the T/C [3] was 68 % of control.
For CCC(C(=O)O)C(=O)O.[NH2-].[NH2-].[Pt+2], the T/C (dose: 75.0 mg/kg/injection, schedule: Q04DX004 (sc), vehicle: saline) was 92 % of control and the T/C (dose: 150.0 mg/kg/injection, schedule: Q04DX004 (sc), vehicle: saline) was 50 % of control.
For Cc1cc2c(C(C)C)c(O)c(O)c(C=O)c2c(O)c1-c1c(C)cc2c(C(C)C)c(O)c(O)c(C=O)c2c1O, the T/C [1] was 100 % of control, the T/C [2] was 71 % of control and the T/C [3] was 64 % of control. The T/C (dose: 300.0 mg/kg/injection, schedule: Q04DX004 (sc), vehicle: saline with Tween-80) was 46 % of control.
CC(=O)C(=O)O.CC(=O)C(=O)O.[NH-]C1CCCCC1[NH-].[Pt+2] (stereo not given) was tested, and the T/C (dose: 15.0 mg/kg/injection, schedule: Q04DX004 (sc), vehicle: other) was 64 % of control, the T/C (dose: 30.0 mg/kg/injection, schedule: Q04DX004 (sc), vehicle: other) was 64 % of control and the T/C (dose: 60.0 mg/kg/injection, schedule: Q04DX004 (sc), vehicle: other) was 47 % of control.
For N=C(N)SCc1cccc2c(=O)cc(-c3ccccc3)oc12, the T/C (dose: 150.0 mg/kg/injection, schedule: Q04DX004 (sc), vehicle: suspension in saline) was 110 % of control, the T/C (dose: 300.0 mg/kg/injection, schedule: Q04DX004 (sc), vehicle: suspension in saline) was 113 % of control and the T/C (dose: 600.0 mg/kg/injection, schedule: Q04DX004 (sc), vehicle: suspension in saline) was 106 % of control. For the same molecule, the T/C (dose: 1200.0 mg/kg/injection, schedule: Q04DX004 (sc), vehicle: suspension in saline) was 69 % of control.
CC(=O)Nc1ccc(C(=O)C=O)cc1 was tested, and the T/C (dose: 50.0 mg/kg/injection, schedule: Q01DX010 (sc), vehicle: saline with Tween-80) was 57 % of control, the T/C (dose: 100.0 mg/kg/injection, schedule: Q01DX010 (sc), vehicle: saline with Tween-80) was 88 % of control and the T/C (dose: 200.0 mg/kg/injection, schedule: Q01DX010 (sc), vehicle: saline with Tween-80) was 68 % of control. The T/C (dose: 400.0 mg/kg/injection, schedule: Q01DX010 (sc), vehicle: saline with Tween-80) was 26 % of control and the T/C (dose: 800.0 mg/kg/injection, schedule: Q01DX010 (sc), vehicle: saline with Tween-80) was 78 % of control.
For O=NN(CCF)C(=O)NC1CCCCC1, the T/C (dose: 6.25 mg/kg/injection, schedule: Q04DX004 (sc), vehicle: Klucel (hydroxypropylcellulose) (HPC)) was 55 % of control, the T/C (dose: 12.5 mg/kg/injection, schedule: Q04DX004 (sc), vehicle: Klucel (hydroxypropylcellulose) (HPC)) was 30 % of control and the T/C (dose: 25.0 mg/kg/injection, schedule: Q04DX004 (sc), vehicle: Klucel (hydroxypropylcellulose) (HPC)) was 62 % of control.
With CC(C)(C)C1CCCCC1 the T/C (dose: 300.0 mg/kg/injection, schedule: Q04DX004 (sc), vehicle: Klucel (hydroxypropylcellulose) (HPC)) was 94 % of control, the T/C (dose: 600.0 mg/kg/injection, schedule: Q04DX004 (sc), vehicle: Klucel (hydroxypropylcellulose) (HPC)) was 97 % of control and the T/C [4] was 56 % of control. The T/C (dose: 2400.0 mg/kg/injection, schedule: Q04DX004 (sc), vehicle: Klucel (hydroxypropylcellulose) (HPC)) was 55 % of control.
In the case of CCCCCCCCCCCCCCCC(=O)OCC1OC(n2ccc(N)nc2=O)C(O)C1O (stereo not given), the T/C (dose: 18.75 mg/kg/injection, schedule: Q04DX004 (sc), vehicle: saline with Tween-80) is reported as 41 % of control.
OCC1OC(n2cnc3c(=S)nc[nH]c32)C(O)C1O (stereo not given) was tested, and the T/C [5] was 54 % of control, the T/C [6] was 77 % of control and the T/C (dose: 100.0 mg/kg/injection, schedule: Q01DX010 (sc), vehicle: saline) was 108 % of control.
With COc1cc2c(c(OC)c1OC)-c1ccc(OC)c(=O)cc1[C@@H](NC(=O)CCl)CC2 the T/C (dose: 0.63 mg/kg/injection, schedule: Q04DX004 (sc), vehicle: saline with Tween-80) was 60 % of control, the T/C (dose: 1.25 mg/kg/injection, schedule: Q04DX004 (sc), vehicle: saline with Tween-80) was 32 % of control and the T/C (dose: 2.5 mg/kg/injection, schedule: Q04DX004 (sc), vehicle: saline with Tween-80) was 57 % of control.
C1CCC2C[N-]CCC2C1.C1CCC2C[N-]CCC2C1.C1CCC2C[N-]CCC2C1.C1CCC2C[N-]CCC2C1.[Cl][Rh][Cl] (stereo not given) was tested, and the T/C (dose: 9.0 mg/kg/injection, schedule: Q04DX004 (sc), vehicle: saline with Tween-80) was 96 % of control, the T/C (dose: 18.0 mg/kg/injection, schedule: Q04DX004 (sc), vehicle: saline with Tween-80) was 82 % of control and the T/C (dose: 36.0 mg/kg/injection, schedule: Q04DX004 (sc), vehicle: saline with Tween-80) was 84 % of control. The T/C (dose: 72.0 mg/kg/injection, schedule: Q04DX004 (sc), vehicle: saline with Tween-80) was 73 % of control.
COc1cccc2c1C(=N)c1c(O)c3c(c(O)c1C2=O)C[C@@](O)(C(C)=O)C[C@@H]3OC1CC(N)C(O)C(C)O1 (stereo not given in full) was tested, and the T/C (dose: 10.0 mg/kg/injection, schedule: Q04DX004 (sc), vehicle: water) was 102 % of control and the T/C (dose: 40.0 mg/kg/injection, schedule: Q04DX004 (sc), vehicle: water) was 53 % of control.
C[C@H]1C[C@@H]2[C@H]([C@@H](O)C[C@@]3(C)[C@H]2CC[C@]3(O)C(=O)CO)[C@@]2(C)C=CC(=O)C=C12 was tested, and the T/C (dose: 200.0 mg/kg/injection, schedule: Q04DX004 (sc), vehicle: Klucel (hydroxypropylcellulose) (HPC)) was 69 % of control.
CC(=O)C1(O)Cc2c(O)c3c(c(O)c2C(OC2CC(N)C(O)C(C)O2)C1)C(=O)c1ccccc1C3=O (stereo not given) was tested, and the T/C (dose: 1.0 mg/kg/injection, schedule: Q04DX004 (sc), vehicle: water) was 67 % of control.
With CC(C)=CCNc1ncnc2c1ncn2C1OC(CO)C(O)C1O (stereo not given) the T/C (dose: 400.0 mg/kg/injection, schedule: Q04DX004 (sc), vehicle: suspension in saline) was 62 % of control.
CN(C)C(=O)c1cccc(COc2ccc(N3C(N)=NC(N)=NC3(C)C)cc2Cl)c1 was tested, and the T/C (dose: 12.5 mg/kg/injection, schedule: Q01DX010 (sc), vehicle: water) was 82 % of control.
For Oc1c(Cl)cc(Cl)cc1C1N2CCCCC2C2c3cccn3-c3ccccc3N21 (stereo not given), the T/C [4] was 111 % of control.
For COc1cccc2c1C(=O)c1c(O)c3c(c(O)c1C2=O)CC(O)(/C(C)=N/NC(=O)CCCCC(=O)N/N=C(\C)C1(O)Cc2c(O)c4c(c(O)c2C(OC2CC(N)C(O)C(C)O2)C1)C(=O)c1c(OC)cccc1C4=O)CC3OC1CC(N)C(O)C(C)O1 (stereo not given), the T/C (dose: 12.5 mg/kg/injection, schedule: Q04DX004 (sc), vehicle: water) was 66 % of control, the T/C (dose: 25.0 mg/kg/injection, schedule: Q04DX004 (sc), vehicle: water) was 98 % of control and the T/C (dose: 50.0 mg/kg/injection, schedule: Q04DX004 (sc), vehicle: water) was 104 % of control. For the same molecule, the T/C (dose: 100.0 mg/kg/injection, schedule: Q04DX004 (sc), vehicle: water) was 152 % of control.
In the case of COc1ccc(-c2cc(C(=O)Nc3cc(C(F)(F)F)cc(C(F)(F)F)c3)c3ccccc3n2)cc1, the T/C (dose: 300.0 mg/kg/injection, schedule: Q04DX004 (ip), vehicle: DMSO) is reported as 115 % of control and the T/C (dose: 600.0 mg/kg/injection, schedule: Q04DX004 (ip), vehicle: DMSO) is reported as 50 % of control.
For Cc1ncc(CNC(=O)N(CCCl)N=O)c(N)n1, the T/C (dose: 9.38 mg/kg/injection, schedule: Q04DX004 (sc), vehicle: saline) was 55 % of control and the T/C (dose: 18.75 mg/kg/injection, schedule: Q04DX004 (sc), vehicle: saline) was 39 % of control.
With CSc1cc(=O)n2c3ccccc3c3ccnc1c32 the T/C (dose: 80.0 mg/kg/injection, schedule: Q04DX004 (sc), vehicle: saline with Tween-80) was 88 % of control, the T/C (dose: 160.0 mg/kg/injection, schedule: Q04DX004 (sc), vehicle: saline with Tween-80) was 91 % of control and the T/C (dose: 320.0 mg/kg/injection, schedule: Q04DX004 (sc), vehicle: saline with Tween-80) was 110 % of control. The T/C (dose: 640.0 mg/kg/injection, schedule: Q04DX004 (sc), vehicle: saline with Tween-80) was 58 % of control.
For CC1(C)OC(=O)N(CO)C1=O, the T/C [5] was 95 % of control, the T/C [6] was 118 % of control and the T/C (dose: 200.0 mg/kg/injection, schedule: Q01DX010 (sc), vehicle: saline) was 194 % of control.
